In ChEMBL document CHEMBL4765464, “Discovery of BMS-986144, a Third-Generation, Pan-Genotype NS3/4A Protease Inhibitor for the Treatment of Hepatitis C Virus Infection” (J Med Chem, 2020):

What was measured:
[1] = Inhibition of recombinant full length NS3/4A protease in Hepatitis C virus subtype 3a infected in human HuH7 cells using Ac-Asp-Glu-Asp (EDANS)-Glu-Glu-Abu-(COO) Ala-Ser-Lys (DABCYL)-NH2 as substrate by FRET assay; settings: Huh-7
[2] = Inhibition of recombinant full length NS3/4A protease in Hepatitis C virus subtype 1a replicon infected in human HuH7 cells preincubated for 3 days followed by substrate addition and measured after 2 hrs by renilla luciferase reporter gene assay; assay type: cell-based; settings: Huh-7
[3] = Inhibition of recombinant full length NS3/4A protease in Hepatitis C virus subtype 1b replicon infected in human HuH7 cells preincubated for 3 days followed by substrate addition and measured after 2 hrs by renilla luciferase reporter gene assay; assay type: cell-based; settings: Huh-7
[4] = Inhibition of recombinant full length NS3/4A protease in Hepatitis C virus subtype 2a replicon infected in human HuH7 cells preincubated for 3 days followed by substrate addition and measured after 2 hrs by renilla luciferase reporter gene assay; assay type: cell-based; settings: Huh-7
[5] = Inhibition of recombinant full length NS3/4A protease in Hepatitis C virus subtype 3a replicon infected in human HuH7 cells preincubated for 3 days followed by substrate addition and measured after 2 hrs by renilla luciferase reporter gene assay; assay type: cell-based; settings: Huh-7
[6] = Inhibition of recombinant full length NS3/4A R155K mutant protease in Hepatitis C virus subtype 1a replicon infected in human HuH7 cells preincubated for 3 days followed by substrate addition and measured after 2 hrs by renilla luciferase reporter gene assay; assay type: cell-based; settings: Huh-7
[7] = Inhibition of recombinant full length NS3/4A D168V mutant protease in Hepatitis C virus subtype 1b replicon infected in human HuH7 cells preincubated for 3 days followed by substrate addition and measured after 2 hrs by renilla luciferase reporter gene assay; assay type: cell-based; settings: Huh-7
[8] = Metabolic stability in human liver microsomes assessed as half-life incubated for 5 to 45 mins in presence of NADPH by LC-MS analysis; assay type: ADME, Microsome; settings: time 5-45 min
[9] = Drug concentration in rat plasma at 5 mg/kg, po measured upto 24 hrs; assay type: ADME, organism-based; settings: read-out: Ct
[10] = Drug concentration in rat liver at 5 mg/kg, po measured upto 24 hrs; assay type: ADME, organism-based; settings: read-out: Ct
[11] = Oral bioavailability in rat at 5 mg/kg; assay type: ADME, organism-based; settings: in vivo
[12] = Half-life in dog at 3 mg/kg, po or 1 mg/kg, iv; assay type: ADME, organism-based, Canis lupus familiaris; settings: in vivo
[13] = Half-life in rat at 5 mg/kg, po or 1 mg/kg, iv; assay type: ADME, organism-based; settings: in vivo
[14] = Clearance in rat at 5 mg/kg, po or 1 mg/kg, iv; assay type: ADME, organism-based; settings: in vivo
[15] = AUC in rat at 5 mg/kg, po or 1 mg/kg, iv; assay type: ADME, organism-based; set-up: dose 5 mg/kg; settings: in vivo
[16] = Clearance in dog at 3 mg/kg, po or 1 mg/kg, iv; assay type: ADME, organism-based, Canis lupus familiaris; settings: in vivo
[17] = Oral bioavailability in dog at 3 mg/kg; assay type: ADME, organism-based, Canis lupus familiaris; settings: in vivo
[18] = AUC in dog at 3 mg/kg, po or 1 mg/kg, iv; assay type: ADME, organism-based, Canis lupus familiaris; set-up: dose 3 mg/kg; settings: in vivo
[19] = Drug concentration in dog plasma at 3 mg/kg, po measured upto 24 hrs; assay type: ADME, organism-based, Canis lupus familiaris; settings: read-out: Ct
[20] = Half-life in cynomolgus monkey at 3 mg/kg, po or 1 mg/kg, iv; assay type: ADME, organism-based, Macaca fascicularis; settings: in vivo
[21] = Clearance in cynomolgus monkey at 3 mg/kg, po or 1 mg/kg, iv; assay type: ADME, organism-based, Macaca fascicularis; settings: in vivo
[22] = Oral bioavailability in cynomolgus monkey at 3 mg/kg; assay type: ADME, organism-based, Macaca fascicularis; settings: in vivo
[23] = AUC in cynomolgus monkey at 3 mg/kg, po or 1 mg/kg, iv; assay type: ADME, organism-based, Macaca fascicularis; set-up: dose 3 mg/kg; settings: in vivo
Cytochrome P450 3A4 [24] = molecular target: T1, Cytochrome P450 3A4 (Homo sapiens, UniProt P08684); experiment: Inhibition of human CYP3A4 in human pooled liver microsomes at 0.002 to 40 uM in presence of midazolam as substrate preincubated in presence of NADPH followed by addition of substrate by LC-MS/MS analysis; assay type: ADME; settings: TDE = time-dependent effect, dose 0.002-40 µM, time <=30 min
T1 sequence (P08684 whole entry): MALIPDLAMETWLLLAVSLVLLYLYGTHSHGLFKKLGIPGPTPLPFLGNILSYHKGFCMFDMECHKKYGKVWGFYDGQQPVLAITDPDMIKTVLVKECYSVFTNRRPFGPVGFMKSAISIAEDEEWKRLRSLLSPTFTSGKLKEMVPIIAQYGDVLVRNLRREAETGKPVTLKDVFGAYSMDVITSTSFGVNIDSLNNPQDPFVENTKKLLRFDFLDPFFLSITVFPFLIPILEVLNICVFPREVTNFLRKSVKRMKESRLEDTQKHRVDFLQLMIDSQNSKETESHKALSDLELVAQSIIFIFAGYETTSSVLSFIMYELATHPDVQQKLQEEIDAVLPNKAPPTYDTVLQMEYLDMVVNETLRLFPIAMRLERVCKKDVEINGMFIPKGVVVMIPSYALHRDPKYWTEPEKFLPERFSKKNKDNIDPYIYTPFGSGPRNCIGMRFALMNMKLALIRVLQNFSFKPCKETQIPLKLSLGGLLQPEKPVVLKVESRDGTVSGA

Cytochrome P450 3A4 [25] = molecular target: T1, Cytochrome P450 3A4; experiment: Inhibition of human CYP3A4 in human pooled liver microsomes at 0.002 to 40 uM in presence of testosterone as substrate preincubated in presence of NADPH followed by addition of substrate by LC-MS/MS analysis; assay type: ADME; settings: TDE = time-dependent effect, dose 0.002-40 µM, time <=30 min
Cytochrome P450 3A4 [26] = molecular target: T1, Cytochrome P450 3A4; experiment: Inhibition of human CYP3A4 in human pooled liver microsomes in presence of testosterone as substrate preincubated for 0 mins in presence of NADPH followed by addition of substrate by LC-MS/MS analysis; assay type: ADME
Cytochrome P450 3A4 [27] = molecular target: T1, Cytochrome P450 3A4; experiment: Inhibition of human CYP3A4 in human pooled liver microsomes in presence of midazolam as substrate preincubated for 0 mins in presence of NADPH followed by addition of substrate by LC-MS/MS analysis; assay type: ADME
Cytochrome P450 3A4 [28] = molecular target: T1, Cytochrome P450 3A4; experiment: Inhibition of human CYP3A4 in human pooled liver microsomes in presence of testosterone as substrate preincubated for 30 mins in presence of NADPH followed by addition of substrate by LC-MS/MS analysis; assay type: ADME
Cytochrome P450 3A4 [29] = molecular target: T1, Cytochrome P450 3A4; experiment: Inhibition of human CYP3A4 in human pooled liver microsomes in presence of midazolam as substrate preincubated for 30 mins in presence of NADPH followed by addition of substrate by LC-MS/MS analysis; assay type: ADME
[30] = Toxicity in rat assessed as clinical effect measured upto 4 days; settings: in vivo, 96 h, time <=4 day
[31] = Toxicity in rat assessed as histopathological changes measured upto 4 days; settings: in vivo, 96 h, time <=4 day
[32] = Toxicity in rat assessed as effect on cardiovascular system by telemetry; settings: in vivo
[33] = Toxicity in rabbit assessed as effect on cardiovascular system by telemetry; set-up: species or system Oryctolagus cuniculus; settings: in vivo
Cytochrome P450 3A4 [34] = molecular target: T1, Cytochrome P450 3A4; experiment: […] of CYP3A4 in human liver microsome in presence of midazolam as substrate preincubated for upto 30 mins in presence of NADPH followed by addition of substrate by LC-MS/MS analysis; assay type: ADME; settings: microsomes
CHO = experiment: Genotoxicity in Chinese Hamster CHO cells assessed as non clastogenicity by micronucleus assay; assay type: toxicity, cell-based, Cricetulus griseus
[35] = Cytotoxicity against human Huh-7 cells assessed as reduction in cell viability; assay type: cell-based
[36] = Cytotoxicity against human MT2 cells assessed as reduction in cell viability; assay type: cell-based
[37] = Genotoxicity in Salmonella typhimurium by AMES test; assay type: toxicity; settings: salmonella enterica subsp. enterica serovar typhimurium
[38] = Clearance in rat at 5 mg/kg, iv; assay type: ADME, organism-based; settings: in vivo
[39] = AUC (0 to 24 hrs) in rat at 15 mg/kg, po; assay type: ADME, organism-based; set-up: time < 24 hr, route oral, dose 15 mg/kg; settings: in vivo
[40] = Ratio of drug concentration in liver to plasma in rat at 15 mg/kg, po measured upto 24 hrs; assay type: ADME, organism-based; settings: liver and plasma
[41] = Half life in rat at 5 mg/kg, iv; assay type: ADME, organism-based; settings: in vivo
[42] = Cmax in rat at 15 mg/kg, po; assay type: ADME, organism-based; set-up: route oral, dose 15 mg/kg; settings: in vivo
[43] = Drug concentration in rat plasma at 15 mg/kg, po measured upto 24 hrs; assay type: ADME, organism-based; settings: read-out: Ct
[44] = Drug concentration in rat liver at 15 mg/kg, po measured upto 24 hrs; assay type: ADME, organism-based; settings: read-out: Ct
[45] = Oral bioavailability in rat at 15 mg/kg; assay type: ADME, organism-based; settings: in vivo
[46] = Metabolic stability in rat liver microsomes assessed as parent compound remaining after 10 mins in presence of NADPH by LC-MS analysis; assay type: ADME, Microsome; settings: read-out: Stabilty
[47] = Volume of distribution in rat at 15 mg/kg, po or 5 mg/kg, iv; assay type: ADME, organism-based; settings: in vivo
[48] = Clearance in rat at 1 mg/kg, iv; assay type: ADME, organism-based; settings: in vivo
[49] = Half life in rat at 1 mg/kg, iv; assay type: ADME, organism-based; settings: in vivo
[50] = AUC (0 to 24 hrs) in rat at 5 mg/kg, po; assay type: ADME, organism-based; set-up: time < 24 hr, route oral, dose 5 mg/kg; settings: in vivo
[51] = Cmax in rat at 5 mg/kg, po; assay type: ADME, organism-based; set-up: route oral, dose 5 mg/kg; settings: in vivo
[52] = Ratio of drug concentration in liver to plasma in rat at 5 mg/kg, po measured upto 24 hrs; assay type: ADME, organism-based; settings: liver and plasma
[53] = Drug concentration in cynomolgus monkey plasma at 3 mg/kg, po measured upto 24 hrs; assay type: ADME, organism-based, Macaca fascicularis; settings: read-out: Ct
[54] = Toxicity in rat assessed as histopathological changes in liver at 100 mg/kg; assay type: organism-based; settings: in vivo
[55] = Toxicity in rat assessed as increase in heart rate at 30 to 100 mg/kg; assay type: organism-based; settings: in vivo, dose 30-100 mg/kg
[56] = Toxicity in rat assessed as reduction in blood pressure at 30 to 100 mg/kg; assay type: organism-based; settings: in vivo, dose 30-100 mg/kg

Structure (SMILES)	IC50 [1]	EC50 [2]	EC50 [3]	EC50 [4]	EC50 [5]	EC50 [6]	EC50 [7]	half-life [8]	concentration at 24 h [9]	concentration at 24 h [10]	bioavailability [11]	half-life [12]	half-life [13]	clearance [14]	AUC [15]	clearance [16]	bioavailability [17]	AUC [18]	concentration at 24 h [19]	half-life [20]	further results
[2H]C([2H])([2H])Oc1cc2ccnc(O[C@@H]3C[C@H]4C(=O)N[C@]5(C(=O)NS(=O)(=O)C6(C)CC6)C[C@H]5/C=C\CC[C@@H](C)C[C@@H](CC)[C@H](NC(=O)OC(C)(C)C(F)(F)F)C(=O)N4C3)c2cc1F	4.8 nM	2.3 nM	0.7 nM	1 nM	12 nM	8 nM	5.8 nM	0.55 h	3850 nM	4160 nM	57%	8.7 h	13.4 h	0.18 mL/min/kg	310 µM·h	1.1 mL/min/kg	71%	39.8 µM·h	163 nM	1.2 h	clearance [21]: 12.1 mL/min/kg; bioavailability [22]: 23.9%; AUC [23]: 0.19 µM·h; inhibition (INH) (Cytochrome P450 3A4 [24]): Tde; inhibition (INH) (Cytochrome P450 3A4 [25]): Tde; IC50 (Cytochrome P450 3A4 [26]): > 40000 nM; IC50 (Cytochrome P450 3A4 [27]): > 40000 nM; IC50 (Cytochrome P450 3A4 [28]): > 33000 nM; IC50 (Cytochrome P450 3A4 [29]): 16400 nM; Activity [30]: Non-Toxic; Activity [31]: Non-Toxic; Activity [32]: Non-Toxic; Activity [33]: Non-Toxic; Activity (Cytochrome P450 3A4 [34]): Not Active; Activity (CHO): Non-Toxic; CC50 [35]: 25000 nM; CC50 [36]: 34000 nM; Activity [37]: Non-Toxic
COc1cnc(O[C@@H]2C[C@H]3C(=O)N[C@]4(C(=O)NS(=O)(=O)C5CC5)C[C@H]4/C=C\CC[C@@H](C)C[C@@H](C)[C@H](NC(=O)OC(C)(C)C(F)(F)F)C(=O)N3C2)c2ccccc12	0.9 nM	0.5 nM	0.5 nM	0.8 nM	2 nM	2.2 nM	5.5 nM	0.198 h	–	–	–	–	–	–	–	–	–	–	–	–	clearance [38]: 4.2 mL/min/kg; AUC(0-t) at 24 h [39]: 11.7 µM·h; Kp at 24 h [40]: 34; half-life [41]: 2.7 h; Cmax [42]: 1780 nM; concentration at 24 h [43]: 14 nM; concentration at 24 h [44]: 480 nM; bioavailability [45]: 15%; remaining at 10 min [46]: 95%; Vd [47]: 0.58 L/kg
CC[C@@H]1C[C@H](C)CC/C=C\[C@@H]2C[C@@]2(C(=O)NS(=O)(=O)C2(C)CC2)NC(=O)[C@@H]2C[C@@H](Oc3ncc(OC)c4ccc(F)cc34)CN2C(=O)[C@H]1NC(=O)OC(C)(C)C(F)(F)F	8.4 nM	2.3 nM	0.6 nM	2 nM	15 nM	7.6 nM	9 nM	0.717 h	422 nM	2070 nM	47%	11.3 h	7.9 h	1.2 mL/min/kg	37 µM·h	0.6 mL/min/kg	67%	71 µM·h	709 nM	2.8 h	clearance [48]: 1.2 mL/min/kg; half-life [49]: 7.9 h; AUC(0-t) at 24 h [50]: 32.5 µM·h; Cmax [51]: 3610 nM; Kp at 24 h [52]: 5; clearance [21]: 5.5 mL/min/kg; bioavailability [22]: 28%; AUC [23]: 2.9 µM·h; concentration at 24 h [53]: 13 nM; Activity [54]: Non-Toxic; Activity [55]: Toxic; Activity [56]: Toxic
